The values below are quoted from earlier work in patent US11672863B2, “Enhanced solubility drug-containing formulations” (United Therapeutics Corporation, priority 2017, dated 2023).

Molecules are shown by their SMILES. Counter-ions that a name gives are not always drawn.

For the series the following is noted: in water between pH 1.8 and 6.

As for `CCCCN1CCCCC1C(=O)Nc1c(C)cccc1C` (stereo not shown) [bupivacaine hydrochloride monohydrate], the solubility – broadly, the dissolved amount per volume that the medium holds – is 40 to 50 mg/mL.
